Results published in patent US20050176655A1, “Novel macrolide derivatives havaing effect of potentiating antifungal activity” (priority 2002, published 2005).

How the values were obtained:
Experiment in all cases: Paper disk method, enhancing action for activities of azole antifungal agents
Format in all cases: cell-based
[1] = system: Candida albicans ATCC 64548; settings: 24 hours; for Inhibition activity (inhibition ring mm) C. albicans ATCC 64548 GYM / Transparency of the inhibition ring C. albicans ATCC 64548 GYM: miconazole 0.03 μg/ml; for Inhibition activity (inhibition ring mm) C. albicans ATCC 64548 GYF / Transparency of the inhibition ring C. albicans ATCC 64548 GYF: fluconazole 0.5 μg/ml
Procedure, shortened: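 GY agar (pH 6.0) seeded with C. albicans ATCC 64548 precultured in Waksman broth at 27° C for 40 hours, supplemented with sub-growth-inhibitory miconazole 0.03 μg/ml or fluconazole 0.5 μg/ml. Paper disk method; inhibition-zone diameter (mm) read after 24 hours, transparency graded A–E.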

[2] = system: fluconazole resistant Candida albicans ATCC 64550; settings: 24 hours; for Inhibition activity (inhibition ring mm) C. albicans ATCC 64550 GYF / Transparency of the inhibition ring C. albicans ATCC 64550 GYF: fluconazole 30 μg/ml; for Inhibition activity (inhibition ring mm) C. albicans ATCC 64550 GYM / Transparency of the inhibition ring C. albicans ATCC 64550 GYM: miconazole 0.15 μg/ml
Procedure, shortened: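 Paper disk assay on GY agar (pH 6.0) seeded with Waksman-broth-grown C. albicans ATCC 64550 (0.1% inoculum). Medium was supplemented with sub-growth-inhibitory miconazole 0.15 μg/ml or fluconazole 30 μg/ml. After 24 h, inhibition-zone diameter was measured in mm and transparency graded A–E (A most transparent, E opaque).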

[3] = system: Aspergillus niger ATCC 6275; settings: 48 hours; for Inhibition activity (inhibition ring mm) A. niger ATCC 6275 GY / Transparency of the inhibition ring A. niger ATCC 6275 GY: GY medium (control, no azole); for Inhibition activity (inhibition ring mm) A. niger ATCC 6275 GYF / Transparency of the inhibition ring A. niger ATCC 6275 GYF: fluconazole 10 μg/ml; for Inhibition activity (inhibition ring mm) A. niger ATCC 6275 GYM / Transparency of the inhibition ring A. niger ATCC 6275 GYM: miconazole 0.1 μg/ml
Procedure, shortened: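 Paper-disk assay on A. niger ATCC 6275 spores (0.2%) seeded on GY agar pH 6.0. After 48 h, inhibition-zone diameter recorded in mm and transparency graded A (transparent) to E (opaque).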

## CCCCCC(=O)OC1C(C)OC(OC2C(C)C(=O)OC(C(C)(O)C(CC)OC(=O)CCCCC)C(C)C3=C(C)CC(C)(O3)C(OC3OC(C)CC(NC)C3O)C2C)CC1(C)OC (centres unmarked) [Compound 852]
[1]; 50 μg/8 mm disk
  Inhibition activity (inhibition ring mm) C. albicans ATCC 64548 GYM: 9 mm
  Transparency of the inhibition ring C. albicans ATCC 64548 GYM: A (Growth of test organism was inhibited 95% or more.)
[1]; 100 μg/8 mm disk
  Inhibition activity (inhibition ring mm) C. albicans ATCC 64548 GYM: 10 mm
  Transparency of the inhibition ring C. albicans ATCC 64548 GYM: A (Growth of test organism was inhibited 95% or more.)
[2]; 10 μg/8 mm disk
  Inhibition activity (inhibition ring mm) C. albicans ATCC 64550 GYF: 9 mm
  Transparency of the inhibition ring C. albicans ATCC 64550 GYF: C (Growth of test organism was inhibited 55% or more and 75% or less.)
  Inhibition activity (inhibition ring mm) C. albicans ATCC 64550 GYM: 9 mm
  Transparency of the inhibition ring C. albicans ATCC 64550 GYM: C (Growth of test organism was inhibited 55% or more and 75% or less.)
[2]; 50 μg/8 mm disk
  Inhibition activity (inhibition ring mm) C. albicans ATCC 64550 GYF: 11 mm
  Transparency of the inhibition ring C. albicans ATCC 64550 GYF: A (Growth of test organism was inhibited 95% or more.)
  Inhibition activity (inhibition ring mm) C. albicans ATCC 64550 GYM: 10 mm
  Transparency of the inhibition ring C. albicans ATCC 64550 GYM: B (Growth of test organism was inhibited 75% of more and 95% or less.)
[2]; 100 μg/8 mm disk
  Inhibition activity (inhibition ring mm) C. albicans ATCC 64550 GYF: 12 mm
  Transparency of the inhibition ring C. albicans ATCC 64550 GYF: A (Growth of test organism was inhibited 95% or more.)
  Inhibition activity (inhibition ring mm) C. albicans ATCC 64550 GYM: 12 mm
  Transparency of the inhibition ring C. albicans ATCC 64550 GYM: B (Growth of test organism was inhibited 75% of more and 95% or less.)
[3]; 50 μg/8 mm disk
  Inhibition activity (inhibition ring mm) A. niger ATCC 6275 GY: 9 mm
  Transparency of the inhibition ring A. niger ATCC 6275 GY: E (Growth of test organism was inhibited 35% or less.)
  Inhibition activity (inhibition ring mm) A. niger ATCC 6275 GYF: 8 mm
  Transparency of the inhibition ring A. niger ATCC 6275 GYF: D (Growth of test organism was inhibited 35% or more and 55% or less.)
  Inhibition activity (inhibition ring mm) A. niger ATCC 6275 GYM: 8 mm
  Transparency of the inhibition ring A. niger ATCC 6275 GYM: C (Growth of test organism was inhibited 55% or more and 75% or less.)
[3]; 100 μg/8 mm disk
  Inhibition activity (inhibition ring mm) A. niger ATCC 6275 GY: 10 mm
  Transparency of the inhibition ring A. niger ATCC 6275 GY: E (Growth of test organism was inhibited 35% or less.)
  Inhibition activity (inhibition ring mm) A. niger ATCC 6275 GYF: 9 mm
  Transparency of the inhibition ring A. niger ATCC 6275 GYF: D (Growth of test organism was inhibited 35% or more and 55% or less.)
  Inhibition activity (inhibition ring mm) A. niger ATCC 6275 GYM: 9 mm
  Transparency of the inhibition ring A. niger ATCC 6275 GYM: A (Growth of test organism was inhibited 95% or more.)

## CCCCCC(=O)OC1C(C)OC(OC2C(C)C(=O)OC(C(C)(O)C(CC)OC(=O)CCCCC)C(C)C3=C(C)CC(C)(O3)C(OC3OC(C)CC(N(C)CC)C3O)C2C)CC1(C)OC (centres unmarked) [Compound 853, 4″,13-Di-O-hexanoyl-de(3′-N-methyl)-N-ethyl-8,9-Anhydro-pseudoerythromycin A 6,9-hemiketal]
[1]; 10 μg/8 mm disk
  Inhibition activity (inhibition ring mm) C. albicans ATCC 64548 GYF: 9 mm
  Transparency of the inhibition ring C. albicans ATCC 64548 GYF: E (Growth of test organism was inhibited 35% or less.)
  Inhibition activity (inhibition ring mm) C. albicans ATCC 64548 GYM: 10 mm
  Transparency of the inhibition ring C. albicans ATCC 64548 GYM: B (Growth of test organism was inhibited 75% of more and 95% or less.)
[1]; 50 μg/8 mm disk
  Inhibition activity (inhibition ring mm) C. albicans ATCC 64548 GYF: 14 mm
  Transparency of the inhibition ring C. albicans ATCC 64548 GYF: B (Growth of test organism was inhibited 75% of more and 95% or less.)
  Inhibition activity (inhibition ring mm) C. albicans ATCC 64548 GYM: 14 mm
  Transparency of the inhibition ring C. albicans ATCC 64548 GYM: A (Growth of test organism was inhibited 95% or more.)
[1]; 100 μg/8 mm disk
  Inhibition activity (inhibition ring mm) C. albicans ATCC 64548 GYF: 16 mm
  Transparency of the inhibition ring C. albicans ATCC 64548 GYF: B (Growth of test organism was inhibited 75% of more and 95% or less.)
  Inhibition activity (inhibition ring mm) C. albicans ATCC 64548 GYM: 15 mm
  Transparency of the inhibition ring C. albicans ATCC 64548 GYM: A (Growth of test organism was inhibited 95% or more.)
[2]; 10 μg/8 mm disk
  Inhibition activity (inhibition ring mm) C. albicans ATCC 64550 GYF: 11 mm
  Transparency of the inhibition ring C. albicans ATCC 64550 GYF: D (Growth of test organism was inhibited 35% or more and 55% or less.)
[2]; 50 μg/8 mm disk
  Inhibition activity (inhibition ring mm) C. albicans ATCC 64550 GYF: 14 mm
  Transparency of the inhibition ring C. albicans ATCC 64550 GYF: A (Growth of test organism was inhibited 95% or more.)
  Inhibition activity (inhibition ring mm) C. albicans ATCC 64550 GYM: 15 mm
  Transparency of the inhibition ring C. albicans ATCC 64550 GYM: A (Growth of test organism was inhibited 95% or more.)
[2]; 100 μg/8 mm disk
  Inhibition activity (inhibition ring mm) C. albicans ATCC 64550 GYF: 15 mm
  Transparency of the inhibition ring C. albicans ATCC 64550 GYF: A (Growth of test organism was inhibited 95% or more.)
  Inhibition activity (inhibition ring mm) C. albicans ATCC 64550 GYM: 16 mm
  Transparency of the inhibition ring C. albicans ATCC 64550 GYM: A (Growth of test organism was inhibited 95% or more.)
[3]; 10 μg/8 mm disk
  Inhibition activity (inhibition ring mm) A. niger ATCC 6275 GY: 10 mm
  Transparency of the inhibition ring A. niger ATCC 6275 GY: E (Growth of test organism was inhibited 35% or less.)
  Inhibition activity (inhibition ring mm) A. niger ATCC 6275 GYF: 9 mm
  Transparency of the inhibition ring A. niger ATCC 6275 GYF: E (Growth of test organism was inhibited 35% or less.)
  Inhibition activity (inhibition ring mm) A. niger ATCC 6275 GYM: 10 mm
  Transparency of the inhibition ring A. niger ATCC 6275 GYM: E (Growth of test organism was inhibited 35% or less.)
[3]; 50 μg/8 mm disk
  Inhibition activity (inhibition ring mm) A. niger ATCC 6275 GY: 12 mm
  Transparency of the inhibition ring A. niger ATCC 6275 GY: D (Growth of test organism was inhibited 35% or more and 55% or less.)
  Inhibition activity (inhibition ring mm) A. niger ATCC 6275 GYF: 13 mm
  Transparency of the inhibition ring A. niger ATCC 6275 GYF: B (Growth of test organism was inhibited 75% of more and 95% or less.)
  Inhibition activity (inhibition ring mm) A. niger ATCC 6275 GYM: 15 mm
  Transparency of the inhibition ring A. niger ATCC 6275 GYM: B (Growth of test organism was inhibited 75% of more and 95% or less.)
[3]; 100 μg/8 mm disk
  Inhibition activity (inhibition ring mm) A. niger ATCC 6275 GY: 13 mm
  Transparency of the inhibition ring A. niger ATCC 6275 GY: D (Growth of test organism was inhibited 35% or more and 55% or less.)
  Inhibition activity (inhibition ring mm) A. niger ATCC 6275 GYF: 14 mm
  Transparency of the inhibition ring A. niger ATCC 6275 GYF: B (Growth of test organism was inhibited 75% of more and 95% or less.)
  Inhibition activity (inhibition ring mm) A. niger ATCC 6275 GYM: 16 mm
  Transparency of the inhibition ring A. niger ATCC 6275 GYM: B (Growth of test organism was inhibited 75% of more and 95% or less.)
